This note sets out measurements from patent US20230107216A1, “PANTETHEINE DERIVATIVES AND USES THEREOF” (Comet Therapeutics, Inc., priority 2018, published 2023).

SMILES strings stand for the structures. Where two headings read alike, the source gives them in different places.

The subject of assay [1] is primary fibroblasts (healthy controls and PA, MMA, BCKDK, PDH, VLCAD, LS, PC, GA, VLCFA, KSS, FXN, HD). The assay is described as follows: Measurement of ROS (H2DCFDA) in primary fibroblasts. Type of assay: cell-based, human. As to conditions: Homo sapiens, procedure Example 812. The procedure, abridged:
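Patient and healthy-control primary fibroblasts switched to supplemented DMEM 24 h before assay, then treated with compound (10 μM) plus H2DCFDA (22 μM) for 2 h (PA, MMA lines) or 24 h (other lines). Kinetic fluorescence at 492/527 nm over 60 min; only live cells analysed.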

Assay [2] relates to monocyte-derived M1 macrophages. The assay is described as follows: M1 differentiation assay (macrophage TNFα, IL6, IL10 ELISA, FACS). Type of assay: cell-based, human. An outline of the steps: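 CD14+ human blood monocytes (100,000) differentiated 6 days with 10 ng/ml GM-CSF plus compound at 10 or 50 μM, refreshed days 2 and 4. Matured 24 h with GM-CSF, IFNγ, LPS plus compound. Supernatant TNFα, IL6, IL10 by ELISA; FACS M1 phenotype CD86+CD68+CD163−.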
On the technique in general: ELISA stands for enzyme-linked immunosorbent assay.

Assay [3] concerns Propionic Acidemia (PA) primary fibroblasts GM00371. Kind of assay: Mitochondrial respiration, XFe96 Extracellular Flux Analyzer (OCR/ECAR), PA fibroblasts GM00371. The assay is classed as cell-based. As to conditions: Homo sapiens, Fibroblast.
[4] abbreviates: Fibroblast, BCKD GM00612, Assay Condition A, read-out: Decreased ROS by at least 10%.

For the compound `COC(=O)CC[C@H](N)C(=O)SCCNC(=O)CCNC(=O)[C@H](O)C(C)(C)CO` [Compound 411], the inhibition at 10 µM in assay [1] (setting [4]) was at least 10%; in assay [1] (Fibroblast, VLCFA GM13262, Assay Condition C, read-out: Decreased ROS by at least 30%), at least 30%; in assay [1] (FXN GM04078, Assay Condition C, read-out: Decreased ROS by at least 10%), at least 10%; in assay [1] (FXN GM04078, Assay Condition C, read-out: Decreased ROS by at least 30%), at least 30%; in assay [2] (Homo sapiens, Macrophage, 10 uM, read-out: % decrease in Macrophage TNFα Secretion), at least 30%. Besides, the “% decrease in Live Macrophage Cells” value in assay [2] (50 uM) is reported as at least 20%. For the same compound, the activation at 10 µM in assay [3] (assay condition A (10 mM glucose, 2 mM L-glutamine, 1 mM pyruvate, 10% FBS), 10 μM, read-out: Increase in Spare Capacity AUC) was at least 30%.
For the compound `CC(O)C(C(=O)SCCNC(=O)CCNC(=O)[C@H](O)C(C)(C)CO)C(C)O` (stereo partly drawn) [Compound 1285, (2R)-2,4-dihydroxy-N-[2-[(2-[[3-hydroxy-2-(1-hydroxyethyl)butanoyl]sulfanyl]ethyl)carbamoyl]ethyl]-3,3-dimethylbutanamide], the inhibition at 10 µM was at least 10% in assay [1] (setting [4]) and at least 30% in assay [1] (Fibroblast, NPC1 GM22879, Assay Condition C, read-out: Decreased ROS by at least 30%). Further, in assay [3] (assay condition C (10 mM glucose, 10% FBS), 50 μM, read-out: Increase in Maximal Respiratory Capacity AUC), the activation at 50 µM is at least 10%.
